Measured values: the NIST ThermoML archive (doi:10.1021/je9005618)

Assay: xn = mol fraction of the nth substance listed
Details: 101 kPa, Liquid

CCn1cc[n+](C)c1.O=S(=O)([O-])C(F)(F)F [1-ethyl-3-methylimidazolium trifluoromethanesulfonate] + CCOC(C)=O
Details	mass density, 278.15 K [kg/m3]	mass density, 288.15 K [kg/m3]	mass density, 298.15 K [kg/m3]	speed of sound, 278.15 K [m/s]	speed of sound, 288.15 K [m/s]	speed of sound, 298.15 K [m/s]
x1 = 0.0501	967.32	955.66	943.87	1238	1193.7	1150
x1 = 0.1003	1011.38	999.99	988.52	1249	1206.1	1163.9
x1 = 0.1502	1051.15	1040.09	1028.97	1263.8	1222.8	1182.5
x1 = 0.2004	1087.57	1076.84	1066.05	1280.5	1241.5	1203
x1 = 0.3002	1150.92	1140.7	1130.49	1313.9	1278.8	1244.2
x1 = 0.4002	1203.84	1194.03	1184.26	1343.7	1311.7	1280.4
x1 = 0.5002	1248.95	1239.47	1230.04	1371.2	1341.6	1312.7
x1 = 0.6009	1288.17	1278.96	1269.8	1397	1369.4	1342.4
x1 = 0.6999	1321.89	1312.9	1303.96	1420.5	1394	1369
x1 = 0.8006	1351.91	1343.1	1334.35	1442.8	1417.9	1393.7
x1 = 0.8492	1365.02	1356.29	1347.63	1453	1428.6	1404.8
x1 = 0.9008	1378.11	1369.47	1360.89	1463.2	1439.3	1416
x1 = 0.9501	1389.89	1381.32	1372.81	1472.6	1449	1426
